Assay results from paper PMC3901242, “Determining Enzyme Kinetics for Systems Biology with Nuclear Magnetic Resonance Spectroscopy” (Metabolites, 2012).

Target: T1, phosphofructokinase (PFK, EC 2.7.1.11) (Escherichia coli, UniProt P0A796)
T1 construct: gene pfkA; native enzyme in whole-cell extract of mid-log micro-aerobic cells (sonication or glass beads), not purified; PFK-1 tetrameric; minor PFK-2 (pfkB) may be present
T1 sequence (P0A796 1-320): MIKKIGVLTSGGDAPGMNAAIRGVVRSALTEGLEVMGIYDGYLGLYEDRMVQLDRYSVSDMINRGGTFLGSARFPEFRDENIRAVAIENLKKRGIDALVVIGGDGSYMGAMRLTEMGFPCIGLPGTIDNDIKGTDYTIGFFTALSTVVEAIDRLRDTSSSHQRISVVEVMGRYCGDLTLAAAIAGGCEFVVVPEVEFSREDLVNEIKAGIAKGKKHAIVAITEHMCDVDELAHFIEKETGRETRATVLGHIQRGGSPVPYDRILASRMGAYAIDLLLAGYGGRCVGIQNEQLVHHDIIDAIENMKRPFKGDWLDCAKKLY
Assay: […]-NMR progress curves, global fit to irreversible bi-substrate Hill equation with negative allosteric modifier
Type: biochemical
Conditions: allosteric inhibitor; co-substrates F6P and ATP; PEP 4 and 8 mM initial; 1 mM Mg2+; 100 mM PIPES pH 7.2, 25 °C; cell extract

Fitted parameters ^b: 0.0863 ± 0.0001 mM
SMILES: C=C(OP(=O)(O)O)C(=O)O [PEP]
